Assay results: US5665735A, “Unbridged bis-aryl carbinol derivatives compositions and methods of use” (Schering Corporation, priority 1995, dated 1997)
Where two headings read alike, the source gives them in different places.

Key:
[1] = tested on: PAF-induced platelet aggregation; assay: Platelet aggregation assay: inhibition of platelet aggregation induced by PAF (in vitro); type: cell-based; conditions: Homo sapiens; for IC50: read-out: PAF antagonism (in vitro) IC50; for inhibition at 0.12 µM: concentration 0.12 μM; for inhibition at 0.25 µM: concentration 0.25 μM; for inhibition at 0.5 µM: concentration 0.5 μM; for inhibition at 0.125 µM: concentration 0.125 μM; for inhibition at 5 µM: concentration 5 μM; for inhibition at 50 µM: concentration 50 μM; for inhibition at 2.5 µM: concentration 2.5 μM
Procedure: A. In Vitro Studies--Platelet Aggregation Assay
Platelet-activating factor (PAF) causes aggregation of platelets by a receptor-mediated mechanism. Therefore, PAF-induced platelet aggregation provides a simple and convenient assay to screen compounds for PAF antagonism.
Blood was centrifuged at 110×g for 15 min. and the supernatant platelet-rich plasma (PRP) carefully transferred into a polypropylene tube. Platelet-poor-plasma (PPP) was prepared by centrifuging PRP at 12,000×g for 2 min. PRP was used within 3 hr. of drawing the blood.
PAF was dissolved in chloroform:methanol (1:1, v/v) at a concentration of 2 mg/mL and stored at -70° C. An aliquot of this solution was transferred to a polypropylene tube and […] under a flow of nitrogen gas. […] The solution was sonicated for 5 min. This stock solution was further diluted to appropriate concentrations in Hepes-saline-BSA buffer. Collagen and adenosine diphosphate (ADP) were purchased as solutions. Test compounds were initially dissolved in dimethyl sulfoxide (DMSO) at a concentration of 50 mM and then further diluted in Hepes-saline-BSA buffer to achieve appropriate concentrations.
When an aggregating agent such as PAF is added to PRP, platelets aggregate. An aggregometer quantifies this aggregation by measuring and comparing light (infra-red) transmission through PPP and PRP. Aggregation assays were performed using a dual-channel aggregometer. PRP (0.45 ml) in aggregometer cuvettes was continually stirred (37° C.). Solutions (50 μL) of test compounds or vehicle were added to the PRP and, after incubation for 2 min., 10-15 μL aliquots of PAF solution were added to achieve a final concentration of 1-5×10^-8 M. In different experiments the aggregatory response was kept within a set limit by varying the concentration of PAF. Incubations were continued until the increase in light transmission reached a maximum (usually 2 min.). This increase in light transmission reflecting platelet aggregation is transmitted to a computer. The computer calculates the slope of transmission change, thus providing the rate of aggregation. Values for inhibition were calculated by comparing rates of aggregation obtained in the absence and the presence of the compound. For each experiment, a standard PAF antagonist such as 8-chloro-6,11-dihydro-11-(1-acetyl-4-piperidylidene)-5H-benzo[5,6]cyclohepta[1,2-b]pyridine was used as a positive control.
Compounds that inhibit PAF-induced aggregation were tested against several other aggregating agents including collagen (0.2 mg/ml) and ADP (2 μM).

[2] = tested on: PAF-induced bronchospasm; assay: Agonist-induced bronchospasm in guinea pigs, PAF (in vivo, oral); parameters: species or system guinea pig (male Hartley)
Procedure: (§1) In Vivo Studies: Agonist-Induced Responses--Spasmogen-Induced Bronchospasm in Guinea Pigs
(§2) Male Hartley guinea pigs (450-550 g) were obtained from Charles River Breeding Laboratories. The animals were fasted overnight and the following day were anesthetized with 0.9 mL/kg i.p. of dilaurethane (containing 0.1 g/mL diallylbarbituric acid, 0.4 g/ml ethylurea and 0.4 g/ml urethane). The left jugular vein was cannulated for the administration of compounds. The trachea was cannulated and the animals were ventilated by a rodent respirator at 55 strokes/min. with a stroke volume of 4 mL. A side arm to the tracheal cannula was connected to a pressure transducer to obtain a continuous measure of inflation pressure. Bronchoconstriction was measured as the percent increase in inflation pressure that peaked within 5 min. after challenge with spasmogen. […] Each animal was challenged with only a single spasmogen. The effect of a compound on the bronchospasm is expressed as a percent inhibition of the increase in inflation pressure compared to the, increase in a control group.

[3] = tested on: histamine-induced bronchospasm; assay: Agonist-induced bronchospasm in guinea pigs, histamine (in vivo, oral); parameters: species or system guinea pig (male Hartley)
Procedure: as §1, §2

With `CCOC(=O)N1CCC(=C2c3ccc(Cl)cc3CCc3cccnc32)CC1` [Compound A, reference compound] the IC50 [1] was over 50000 nM, the “PAF agonist bronchospasm % inhibition” value ([2]; 10 mg/kg) was under 50% and the “Histamine agonist bronchospasm % inhibition” value ([3]; 1 mg/kg) was over 50%.

For `CC(=O)N1CCC(=C2c3ccc(Cl)cc3CCc3cccnc32)CC1` [Compound B, reference compound], the IC50 ([1]; in vitro, known compounds, for purposes of comparison) was 610 nM, the “PAF agonist bronchospasm % inhibition” value ([2]; 3 mg/kg) was 4% and the “Histamine agonist bronchospasm % inhibition” value ([3]; 3 mg/kg) was 48%.

`O=C(c1cc[n+]([O-])cc1)N1CCC(=C2c3ccc(Cl)cc3CCc3cccnc32)CC1` [Compound C, reference compound] was tested, and the “PAF agonist bronchospasm % inhibition (duration)” value ([2]; 5 mg/kg, time 4 (unit not given)) was 37% and the “PAF agonist bronchospasm % inhibition (duration)” value ([2]; 5 mg/kg, time 8 (unit not given)) was 12%.

With `CC(=O)N1CCC(=C2c3ccc(Cl)cc3CCc3cccnc32)CC1` [Compound D, reference compound] the “PAF agonist bronchospasm % inhibition (duration)” value ([2]; 15 mg/kg, time 4 (unit not given)) was 61% and the “PAF agonist bronchospasm % inhibition (duration)” value ([2]; 15 mg/kg, time 8 (unit not given)) was 32%.

With `O=C(c1cc[n+]([O-])cc1)N1CCC(C(O)(c2ccccn2)c2ccccn2)CC1` [Formula 1.0A1] the inhibition at 0.12 µM [1] was 28%, the inhibition at 0.25 µM [1] was 68% and the inhibition at 0.5 µM [1] was 97%. The “PAF agonist bronchospasm % inhibition” value ([2]; 3 mg/kg) was 93%.

`O=C(c1cc[n+]([O-])cc1)N1CCC(C(O)(c2ccc(Cl)cc2)c2ccccn2)CC1` (centres unmarked) [Formula 1.0A3] gave an inhibition at 0.063 µM ([1]; concentration 0.063 μM) of 41%, an inhibition at 0.125 µM [1] of 53% and an inhibition at 0.25 µM [1] of 69%. The inhibition at 0.5 µM [1] was 88%, the inhibition at 5 µM [1] was 95% and the inhibition at 50 µM [1] was 92%. The “PAF agonist bronchospasm % inhibition” value ([2]; 3 mg/kg) was 87%.

With `[O-][n+]1ccc(CN2CCC(C(O)(c3ccccc3)c3cccs3)CC2)cc1` (centres unmarked) [Formula 1.0A5] the inhibition at 0.12 µM [1] was 35%, the inhibition at 0.25 µM [1] was 41% and the inhibition at 0.5 µM [1] was 59%. The inhibition at 1.2 µM ([1]; concentration 1.2 μM) was 81%, the inhibition at 2.5 µM [1] was 91% and the “PAF agonist bronchospasm % inhibition” value ([2]; 3 mg/kg) was 20%.

Work on `O=C(c1cc[n+]([O-])cc1)N1CCC(C(O)(c2ccc(Cl)cc2)c2cccs2)CC1` (centres unmarked) [Formula 1.0A8] yielded an inhibition at 0.5 µM [1] of 74%, an inhibition at 1.25 µM ([1]; concentration 1.25 μM) of 26% and an inhibition at 2.5 µM [1] of 55%. For the same compound, the inhibition at 5 µM [1] was 100%, the inhibition at 50 µM [1] was 89% and the “PAF agonist bronchospasm % inhibition” value ([2]; 3 mg/kg) was 0%.

`[O-][n+]1ccc(CN2CCC(C(O)(c3ccc(Cl)cc3)c3cccs3)CC2)cc1` (centres unmarked) [Formula 1.0A9] was tested, and the inhibition at 5 µM [1] was 24% and the inhibition at 50 µM [1] was 100%.

For `O=C(c1cc[n+]([O-])cc1)N1CCC(C(O)(c2ccc(Cl)cc2)c2nccs2)CC1` (stereo not drawn) [Formula 1.0A10, α-(4-chlorophenyl)-1-(4-pyridinylcarbonyl)-α-(2-thiazolyl)-4-piperidinemethanol N^1-oxide], the inhibition at 0.125 µM [1] was 52%, the inhibition at 0.25 µM [1] was 67% and the inhibition at 0.5 µM [1] was 88%. For the same compound, the inhibition at 5 µM [1] was 92%, the inhibition at 50 µM [1] was 86% and the “PAF agonist bronchospasm % inhibition” value ([2]; 3 mg/kg) was 93%. The “PAF agonist bronchospasm % inhibition (duration)” value ([2]; 4 mg/kg, time 6 (unit not given)) was 99% and the “Histamine agonist bronchospasm % inhibition” value ([3]; 10 mg/kg) was 12%.

For `[O-][n+]1ccc(CN2CCC(C(O)(c3ccc(Cl)cc3)c3nccs3)CC2)cc1` (centres unmarked) [Formula 1.0A11], the inhibition at 0.5 µM [1] was 7%, the inhibition at 5 µM [1] was 76% and the inhibition at 50 µM [1] was 83%.

With `O=C(c1cc[n+]([O-])cc1)N1CCC(C(O)(c2ccccn2)c2nccs2)CC1` (centres unmarked) [Formula 1.0A12] the inhibition at 0.25 µM [1] was 47%, the inhibition at 0.5 µM [1] was 58% and the inhibition at 5 µM [1] was 98%. It also gave an inhibition at 50 µM [1] of 100%.
